From PMC5890784, “Total chemical synthesis of glycocin F and analogues: S-glycosylation confers improved antimicrobial activity” (Chemical Science, 2018)
Bridges are numbered along the chain shown (N, C = ends). The star is where a group is joined. βGlcNAc = CC(=O)N[C@@H]1[C@@H](O)[C@H](O)[C@@H](CO)O[C@H]1*

System: Lactobacillus plantarum ATCC 8014
Type: cell-based
Conditions: for IC50: liquid culture in MRS broth, 96-well plate, triplicate, start OD 0.05, 30 °C, 12-15 h, absorbance 600 nm, error = maximum variance across triplicates
Experimental: To evaluate the antibacterial activity of synthetic glycocin F (1b), [^27D-His]-GccF (1a) and glyco-mutants 10 and 11, the IC50 values against Lactobacillus plantarum ATCC 8014 were measured using a liquid culture assay. Synthetic GccF (1b) was used as the positive control (Table 1).
The glycopeptides were assayed for activity against Lactobacillus plantarum strain 8014, using a 96-well plate reader. Serial dilutions of the compound to be tested were prepared in MRS broth (Merck) and was added, in triplicate, to a 96-well plate containing an equal volume of L. plantarum 8014 at optical density 0.05. Additional positive controls (cells with no treatment) and negative controls (MRS media with no cells) were included, also in triplicate. Cells were grown in a Multiskan GO plate reader (Thermo Scientific) for 12-15 h, at 30 °C, and absorbance measured at 600 nm every 15 min. The growth of cells in each peptide concentration was modelled against the internal positive control, and the percentage inhibition derived at each time point as the difference between the optical density of the positive control and the optical density of cells within a given peptide concentration. Taking the maximum point from plots of percentage inhibition versus time for each peptide concentration allowed a polynom ial fit to be applied, and the concentration required to reach 50% inhibition derived.
Statistical error was taken as the maximum variance across the triplicates of each concentration in a […]
Figure 44. Th e results from testin g the bacterially-isola ted GccF, synthetic GccF (1b) and analo gues 1a, 10, and 11, plott ed as perc entage in hibit ion of Lact oba cillus plantarum ATCC 8014 gro wth vs concentra tion of the […]
(1 picture or pasted object on this page, not shown here)

[1] = from IC50 values, relative to IC50 1.13 nM

Row | Substance | IC50 | further results
1 | H-KPAWCWYTLAMCGAGYDC(βGlcNAc)GTCDYMYSHCFGIKHHSSGSSSYHC(βGlcNAc)-OH (disulfide 5-28, 12-21) [Compound 11] |  | increase in activity relative to the native glycopeptide (fold) [1]: approximately 2 fold
2 | H-KPAWCWYTLAMCGAGYDS(βGlcNAc)GTCDYMYSHCFGIKHHSSGSSSYHC(βGlcNAc)-OH (disulfide 5-28, 12-21) [Compound 1b, glycocin F] | 1.13 ± 0.2 nM | 
3 | H-KPAWCWYTLAMCGAGYDS(βGlcNAc)GTCDYMYSHCFGIKHHSSGSSSYHC(βGlcNAc)-OH (disulfide 5-28, 12-21) [Native, glycocin F] | 2 ± 0.2 nM | 
4 | H-KPAWCWYTLAMCGAGYDS(βGlcNAc)GTCDYMYSHCFGIKHHSSGSSSYHS(βGlcNAc)-OH (disulfide 5-28, 12-21) [Compound 10] |  | decrease in activity compared to native glycocin F (fold) [1]: approximately 10 fold
